Measured values: BindingDB's records for patent US10633389 (Epizyme, Inc., 2020)

What follows are molecules tested against T1, Histone-arginine methyltransferase CARM1 (Homo sapiens, UniProt Q86X55) (assay: Enzyme Assay).
T1 sequence (Q86X55 whole entry): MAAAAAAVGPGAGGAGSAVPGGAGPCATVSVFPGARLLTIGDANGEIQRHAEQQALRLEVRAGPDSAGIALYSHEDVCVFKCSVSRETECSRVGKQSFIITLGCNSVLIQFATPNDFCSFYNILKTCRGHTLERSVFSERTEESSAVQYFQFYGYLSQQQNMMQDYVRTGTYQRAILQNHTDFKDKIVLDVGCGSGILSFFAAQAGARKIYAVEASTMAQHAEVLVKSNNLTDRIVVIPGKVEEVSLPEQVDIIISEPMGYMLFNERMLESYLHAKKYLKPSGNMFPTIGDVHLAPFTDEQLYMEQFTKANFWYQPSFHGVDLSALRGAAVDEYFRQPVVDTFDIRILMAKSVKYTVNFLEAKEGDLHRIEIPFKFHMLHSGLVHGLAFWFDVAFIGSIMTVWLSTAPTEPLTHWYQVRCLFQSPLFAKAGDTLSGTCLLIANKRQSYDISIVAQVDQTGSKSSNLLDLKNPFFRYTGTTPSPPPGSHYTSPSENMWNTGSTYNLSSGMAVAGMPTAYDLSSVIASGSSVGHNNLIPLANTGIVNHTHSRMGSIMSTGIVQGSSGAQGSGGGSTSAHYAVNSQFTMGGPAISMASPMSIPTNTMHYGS
Method: The assays were all performed in a buffer consisting of 20 mM Bicine (pH=7.6), 1 mM TCEP, 0.005% BSG, and 0.002% Tween 20, prepared on the day of use. […] DMSO (1 ul) was added to Columns 11, 12, 23, 24, rows A-H for the maximum signal control and 1 ul of SAH, a known product and inhibitor of CARM1, was added to columns 11, 12, 23, 24, rows I-P for the minimum signal control. A cocktail (40 ul) containing the CARM1 enzyme was added by Multidrop Combi. The compounds were allowed to incubate with CARM1 for 30 min at room temperature, then a cocktail (10 ul) containing 3H-SAM and peptide was added to initiate the reaction (final volume=51 ul). […] The assays were stopped by the addition of non-radiolabeled SAM (10 ul) to a final concentration of 300 uM, which dilutes the 3H-SAM to a level where its incorporation into the peptide substrate is no longer detectable. 50 ul of the reaction in the 384-well polypropylene plate was then transferred to a 384-well Flashplate and the biotinylated peptides were allowed to bind to the streptavidin surface for at least 1 hour before being washed once with 0.1% Tween20 in a Biotek ELx405 plate washer.

IC50, < 100 nM:
CCN1CCC(Nc2nc(-c3cc(OC[C@H](O)CNC)ccc3Cl)nc(-c3c(C)noc3C)c2C)C(F)(F)C1 (stereo partly specified) [US10633389, Example 291-3]
CNC[C@@H](O)COc1ccc(Cl)c(-c2nc(NC3CCN(C4CC4)CC3(F)F)c(C)c(-c3c(C)noc3C)n2)c1 (stereo partly specified) [US10633389, Example 292-3]
CNCC(O)COc1cccc(-c2nc(N[C@@H]3CCOC3)c(C)c(N3CCC[C@H]4CN(Cc5ccccc5)C[C@H]43)n2)c1 (stereo partly specified) [US10633389, Example 378-1a]
CNCC(O)COc1cccc(-c2nc(N[C@@H]3CCOC3)c(C)c(N3CCC(n4c(C)nnc4C)CC3)n2)c1 (stereo partly specified) [US10633389, Example 390-1a]
CNCC(O)COc1cccc(-c2nc(N[C@@H]3CCOC3)c(C)c(-c3ccc4nccn4c3)n2)c1 (stereo partly specified) [US10633389, Example 445-1a]
CCS(=O)(=O)n1cc(-c2cc(N(C)C3CCOCC3)nc(-c3cccc(OCC(O)CNC)c3)n2)c2cncnc21 (stereo unspecified) [US10633389, Example 484-1a]
